Source: PubChem BioAssay (NCI)
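These data come from cells grown in 96-well plates and exposed to compound for 48 hours at five concentrations. At the TGI there is no net growth.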

Key:
Experiment in all cases: NCI tumour cell line growth inhibition, 48 h
[1] = test system: 786-0 renal
[2] = test system: A498 renal
[3] = test system: A549 NSCLC
[4] = test system: ACHN renal
[5] = test system: CAKI-1 renal
[6] = test system: CCRF-CEM leukemia
[7] = test system: COLO 205 colon
[8] = test system: DLD-1 colon
[9] = test system: DMS 114 small cell lung
[10] = test system: DMS 273 small cell lung
[11] = test system: EKVX NSCLC
[12] = test system: HCC-2998 colon
[13] = test system: HCT-116 colon
[14] = test system: HCT-15 colon
[15] = test system: HL-60(TB) leukemia
[16] = test system: HOP-18 NSCLC
[17] = test system: HOP-62 NSCLC
[18] = test system: HOP-92 NSCLC
[19] = test system: HT29 colon
[20] = test system: IGROV1 ovarian
[21] = test system: K-562 leukemia
[22] = test system: KM12 colon
[23] = test system: KM20L2 colon
[24] = test system: LOX IMVI melanoma
[25] = test system: LXFL 529 NSCLC
[26] = test system: M14 melanoma
[27] = test system: M19-MEL melanoma
[28] = test system: MALME-3M melanoma
[29] = test system: MOLT-4 leukemia
[30] = test system: NCI-H226 lung
[31] = test system: NCI-H23 lung
[32] = test system: NCI-H460 lung
[33] = test system: NCI-H522 lung
[34] = test system: OVCAR-3 ovarian
[35] = test system: OVCAR-4 ovarian
[36] = test system: OVCAR-5 ovarian
[37] = test system: OVCAR-8 ovarian
[38] = test system: RPMI-8226 leukemia
[39] = test system: RXF 393 renal
[40] = test system: RXF-631 renal
[41] = test system: SF-268 CNS
[42] = test system: SF-295 CNS
[43] = test system: SF-539 CNS
[44] = test system: SK-MEL-2 melanoma
[45] = test system: SK-MEL-28 melanoma
[46] = test system: SK-MEL-5 melanoma
[47] = test system: SK-OV-3 ovarian
[48] = test system: SN12C renal
[49] = test system: SNB-19 CNS
[50] = test system: SNB-75 CNS
[51] = test system: SNB-78 CNS
[52] = test system: SR leukemia
[53] = test system: SW-620 colon
[54] = test system: TK-10 renal
[55] = test system: U251 CNS
[56] = test system: UACC-257 melanoma
[57] = test system: UACC-62 melanoma
[58] = test system: UO-31 renal
[59] = test system: XF 498 CNS

Question: Which results are given for `COC(=O)/C=C/c1c(CC=C(C)C)ncn1C`?
Answer: TGI [1]: > 100 µM; TGI [2]: > 100 µM; TGI [3]: > 100 µM; TGI [4]: > 100 µM; TGI [5]: > 100 µM; TGI [6]: > 100 µM; TGI [7]: > 100 µM; TGI [8]: > 100 µM; TGI [9]: > 100 µM; TGI [10]: > 100 µM; TGI [11]: > 100 µM; TGI [12]: > 100 µM; TGI [13]: > 100 µM; TGI [14]: > 100 µM; TGI [15]: 31.6 µM; TGI [16]: > 100 µM; TGI [17]: > 100 µM; TGI [18]: > 100 µM; TGI [19]: > 100 µM; TGI [20]: > 100 µM; TGI [21]: > 100 µM; TGI [22]: > 100 µM; TGI [23]: > 65.8 µM; TGI [24]: > 100 µM; TGI [25]: > 100 µM; TGI [26]: > 100 µM; TGI [27]: > 100 µM; TGI [28]: > 100 µM; TGI [29]: > 100 µM; TGI [30]: > 89.8 µM; TGI [31]: > 100 µM; TGI [32]: > 100 µM; TGI [33]: > 100 µM; TGI [34]: 59 µM; TGI [35]: > 100 µM; TGI [36]: > 100 µM; TGI [37]: > 100 µM; TGI [38]: > 100 µM; TGI [39]: > 87 µM; TGI [40]: > 100 µM; TGI [41]: > 100 µM; TGI [42]: > 100 µM; TGI [43]: 62.2 µM; TGI [44]: > 100 µM; TGI [45]: > 100 µM; TGI [46]: > 100 µM; TGI [47]: > 100 µM; TGI [48]: > 100 µM; TGI [49]: > 100 µM; TGI [50]: 56 µM; TGI [51]: > 100 µM; TGI [52]: > 100 µM; TGI [53]: > 100 µM; TGI [54]: > 100 µM; TGI [55]: > 67.1 µM; TGI [56]: > 100 µM; TGI [57]: > 100 µM; TGI [58]: > 92.7 µM; TGI [59]: > 100 µM

Question: How did the TGI [1] turn out when `CNS(=O)(=O)NNS(=O)(=O)c1ccc(Br)cc1` was run?
Answer: The TGI was over 100 µM.

Question: What about the TGI [2] of the same compound?
Answer: Its TGI is over 100 µM.

Question: And the TGI [3]?
Answer: Its TGI is over 100 µM.

Question: And the TGI [4]?
Answer: The TGI was over 100 µM.

Question: And the TGI [5]?
Answer: The TGI was over 100 µM.

Question: What about the TGI [6] of the same compound?
Answer: Its TGI is over 100 µM.

Question: What about the TGI [7] of the same compound?
Answer: The TGI was over 100 µM.

Question: And the TGI [8]?
Answer: Its TGI is over 100 µM.

Question: And the TGI [9]?
Answer: Its TGI is over 100 µM.

Question: And the TGI [10]?
Answer: Its TGI is over 100 µM.

Question: And the TGI [11]?
Answer: Its TGI is over 100 µM.

Question: And the TGI [12]?
Answer: Its TGI is over 100 µM.

Question: And the TGI [13]?
Answer: Its TGI is over 100 µM.

Question: And the TGI [14]?
Answer: Its TGI is over 100 µM.

Question: And the TGI [15]?
Answer: Its TGI is over 100 µM.

Question: What about the TGI [16] of the same compound?
Answer: Its TGI is over 100 µM.

Question: What about the TGI [17] of the same compound?
Answer: Its TGI is over 100 µM.

Question: What about the TGI [18] of the same compound?
Answer: Its TGI is over 100 µM.

Question: What about the TGI [19] of the same compound?
Answer: The TGI was over 100 µM.

Question: What about the TGI [20] of the same compound?
Answer: The TGI was over 100 µM.

Question: And the TGI [21]?
Answer: Its TGI is over 100 µM.

Question: What about the TGI [23] of the same compound?
Answer: The TGI was over 100 µM.

Question: What about the TGI [24] of the same compound?
Answer: The TGI was over 100 µM.

Question: And the TGI [25]?
Answer: Its TGI is over 100 µM.

Question: What about the TGI [26] of the same compound?
Answer: The TGI was over 100 µM.

Question: And the TGI [27]?
Answer: Its TGI is over 100 µM.

Question: And the TGI [28]?
Answer: The TGI was over 100 µM.

Question: And the TGI [30]?
Answer: Its TGI is over 100 µM.

Question: What about the TGI [31] of the same compound?
Answer: The TGI was over 100 µM.

Question: What about the TGI [32] of the same compound?
Answer: The TGI was over 100 µM.

Question: What about the TGI [33] of the same compound?
Answer: The TGI was over 100 µM.

Question: What about the TGI [35] of the same compound?
Answer: The TGI was over 100 µM.

Question: And the TGI [36]?
Answer: The TGI was over 100 µM.

Question: What about the TGI [37] of the same compound?
Answer: The TGI was over 100 µM.

Question: What about the TGI [38] of the same compound?
Answer: The TGI was over 100 µM.

Question: And the TGI [39]?
Answer: Its TGI is over 100 µM.

Question: What about the TGI [40] of the same compound?
Answer: Its TGI is over 100 µM.

Question: What about the TGI [41] of the same compound?
Answer: Its TGI is over 100 µM.

Question: And the TGI [43]?
Answer: The TGI was over 100 µM.

Question: And the TGI [44]?
Answer: Its TGI is over 100 µM.

Question: What about the TGI [45] of the same compound?
Answer: The TGI was over 100 µM.

Question: And the TGI [46]?
Answer: Its TGI is over 100 µM.

Question: What about the TGI [47] of the same compound?
Answer: The TGI was over 100 µM.

Question: What about the TGI [49] of the same compound?
Answer: The TGI was over 100 µM.

Question: What about the TGI [50] of the same compound?
Answer: Its TGI is over 100 µM.

Question: What about the TGI [51] of the same compound?
Answer: The TGI was over 100 µM.

Question: What about the TGI [53] of the same compound?
Answer: Its TGI is over 100 µM.

Question: What about the TGI [54] of the same compound?
Answer: Its TGI is over 100 µM.

Question: What about the TGI [55] of the same compound?
Answer: The TGI was over 100 µM.

Question: What about the TGI [56] of the same compound?
Answer: The TGI was over 100 µM.

Question: And the TGI [57]?
Answer: The TGI was over 100 µM.

Question: And the TGI [58]?
Answer: The TGI was over 100 µM.

Question: And the TGI [59]?
Answer: The TGI was over 100 µM.
